Assays:
hPI3Kδ (PIK3CD/PIK3R1) = target: T1, hPI3Kδ (PIK3CD/PIK3R1) (Homo sapiens, UniProt O00329); test: lipid kinase assay (ADP-Glo), PI3Kδ; format: biochemical
T1 construct: purchased ProQinase, Germany 1162–1165‐1
Experimental: In vitro selection, lipid kinase assay: To determine the inhibitory activity of the new molecular entities on PI3K enzyme, a lipid kinase assay was performed: recombinant proteins (30 ng), human PI3Kα (PIK3CA/PIK3R1, #1161‐1165‐1 ProQinase–Germany), hPI3Kβ (PIK3CB wt/PIK3R1, #1168‐1165‐1 ProQinase, Germany), hPI3Kγ (PIK3CG, #1163‐0000‐1 ProQinase, Germany), hPI3Kδ (PIK3CD/PIK3R1, #1162–1165‐1 ProQinase, Germany), hPI3K‐C2α (PIK3C2A, #14‐906 Merck Millipore_Merck KGaA, Germany), hPI3K‐C2β (PIK3C2B, #14‐907 Merck Millipore_Merck KGaA, Germany), hPI3K‐c2γ (PIK3C2G, #1207‐0000‐1 ProQinase, Germany), and hVps34 (PIK3C3, #1160‐0000‐1 ProQinase, Germany), were incubated in kinase buffer {12.5 μL; 20 mM Tris‐HCl pH 7.5, 10 mM MgCl2, 10 μM ATP, 0.05 mg mL^−1 BSA, 0.5 mM EDTA, 5 mM HEPES pH 7.5, for PI3Kα,PI3Kβ, PI3Kγ, PI3Kδ, PI3KC‐2α, and PI3KC‐2γ; 15 mM MnCl2, 5 mM EGTA, 100 μM ATP, 50 mM HEPES pH 7.5, 100 mM NaCl, and 0.03 % CHAPS for PI3K‐C2β and VPS34 {BSA=bovine serum albumin; EDTA=ethylenediaminetetraacetic acid; HEPES=4‐(2‐hydroxyethyl)‐1‐piperazineethanesulfonic acid; EGTA=ethylene glycol‐bis(2‐aminoethylether)‐N,N,N′,N′‐tetraacetic acid; CHAPS=3‐[(3‐cholamidopropyl)dimethylammonio]‐1‐propanesulfonate}. In the reaction, the ATP concentration used for different PI3Ks was defined on the basis of the Michaelis–Menten kinetics of each enzyme, provided by the supplier. Reaction was performed in presence of 0.5 mg mL^−1 lipid micelles (1:1 phosphatidylinositol/phosphatidylserine) and in the absence (DMSO alone) or presence of increasing concentrations of each compound (from 0.1 nM to 30 μM). The mixture was kept at room temperature (RT) for 30 min for PI3Kα, PI3Kβ, PI3Kγ, PI3Kδ, PI3KC‐2α, and PI3KC‐2γ and for 1 h for PI3K‐C2β and PI3K‐C3. The amount of ADP produced in the reaction was measured by using the ADP‐Glo Kinase Assay kit from Promega (#V9102) and a luminescence reader (Glomax multi detection system, Promega, model number 9301‐010).
The residual PI3K lipid kinase activity in the presence of each molecule at different concentrations was related to the control, intended as the recombinant protein in the presence of DMSO alone and was expressed as a percentage. To derive the IC50 value, all data (% of lipid kinase activity) were plotted on a dose–response curve (Graph Pad software), and the IC50 was calculated by using nonlinear regression fit (equation [log agonist] versus response).

PI3Kδ = target: T2, PI3Kδ (Homo sapiens, UniProt O00329); test: Lineweaver–Burk plot, inhibition mode against PI3Kδ; format: biochemical; settings: ATP 5-100 μM; 37 at 5, 10, 20 nM
T2 construct: purchased ProQinase, Germany 1162–1165‐1
Experimental: Figure 6 Inhibition mode of 37 against PI3Kδ isoform. Lineweaver–Burk plot, 1/v versus 1/[ATP]. The inhibition assay was performed by using varying concentrations of ATP (5, 10, 25, 50, and 100 μM) and fixed concentrations of PI3Kδ recombinant protein (2.4 μg mL^−1) and lipids (1 mg mL^−1 PI/PS lipid micelles mixture) in the presence or absence of different concentrations of 37 (5, 10, and 20 nM).
Lineweaver–Burk plot: The linear phase of the kinetic reaction was defined with 2.4 μg mL^−1 of PI3Kδ in a 20 min reaction time. In the presence of increasing concentrations of 37 (5, 10 and 20 nM), the PI3K lipid kinase activity (for the assay method see “In vitro selection, lipid kinase assay” in the Experimental Section) was assayed at various concentrations of ATP (5, 10, 25, 50, and 100 μM) and in the presence of 0.5 mg mL^−1 lipid micelles (1:1 phosphatidylinositol/phosphatidylserine). A Lineweaver–Burk plot was obtained by plotting 1/v, for which v represents pmol min^−1 of ADP produced in the reaction measured with the ADP‐Glo Kinase Assay kit from Promega (#V9102) versus 1/[ATP] (the inverse of the ATP concentration). The minus‐enzyme control was obtained by incubating phosphatidylinositol in the absence of PI3Kδ.

T1 sequence (O00329 whole entry): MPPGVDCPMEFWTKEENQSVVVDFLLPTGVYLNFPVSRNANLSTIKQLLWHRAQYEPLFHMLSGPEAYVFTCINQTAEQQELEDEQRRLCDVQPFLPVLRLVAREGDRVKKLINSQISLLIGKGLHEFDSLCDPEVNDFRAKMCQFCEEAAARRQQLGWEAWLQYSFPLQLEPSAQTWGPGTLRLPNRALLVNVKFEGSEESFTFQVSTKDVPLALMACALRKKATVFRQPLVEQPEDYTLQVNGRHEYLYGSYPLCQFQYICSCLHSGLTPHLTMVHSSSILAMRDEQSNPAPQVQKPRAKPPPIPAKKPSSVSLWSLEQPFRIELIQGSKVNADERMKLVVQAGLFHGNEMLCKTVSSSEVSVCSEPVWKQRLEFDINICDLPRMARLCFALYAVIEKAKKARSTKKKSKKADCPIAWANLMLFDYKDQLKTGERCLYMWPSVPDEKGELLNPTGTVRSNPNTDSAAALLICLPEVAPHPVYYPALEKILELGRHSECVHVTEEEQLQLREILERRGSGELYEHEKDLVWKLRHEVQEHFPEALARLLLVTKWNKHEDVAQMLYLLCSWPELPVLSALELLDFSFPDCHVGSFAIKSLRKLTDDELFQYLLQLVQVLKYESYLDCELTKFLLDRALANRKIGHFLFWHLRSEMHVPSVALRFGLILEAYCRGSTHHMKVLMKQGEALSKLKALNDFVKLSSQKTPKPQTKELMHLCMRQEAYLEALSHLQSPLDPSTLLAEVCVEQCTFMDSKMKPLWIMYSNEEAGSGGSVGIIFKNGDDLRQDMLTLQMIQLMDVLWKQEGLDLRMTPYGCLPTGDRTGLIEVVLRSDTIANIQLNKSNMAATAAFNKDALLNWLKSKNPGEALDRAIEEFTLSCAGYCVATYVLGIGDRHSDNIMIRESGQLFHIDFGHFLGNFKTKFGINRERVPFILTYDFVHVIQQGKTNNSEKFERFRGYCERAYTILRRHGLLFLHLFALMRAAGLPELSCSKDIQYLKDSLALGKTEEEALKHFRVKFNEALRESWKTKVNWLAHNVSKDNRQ
T1 sequence (P27986 whole entry partner): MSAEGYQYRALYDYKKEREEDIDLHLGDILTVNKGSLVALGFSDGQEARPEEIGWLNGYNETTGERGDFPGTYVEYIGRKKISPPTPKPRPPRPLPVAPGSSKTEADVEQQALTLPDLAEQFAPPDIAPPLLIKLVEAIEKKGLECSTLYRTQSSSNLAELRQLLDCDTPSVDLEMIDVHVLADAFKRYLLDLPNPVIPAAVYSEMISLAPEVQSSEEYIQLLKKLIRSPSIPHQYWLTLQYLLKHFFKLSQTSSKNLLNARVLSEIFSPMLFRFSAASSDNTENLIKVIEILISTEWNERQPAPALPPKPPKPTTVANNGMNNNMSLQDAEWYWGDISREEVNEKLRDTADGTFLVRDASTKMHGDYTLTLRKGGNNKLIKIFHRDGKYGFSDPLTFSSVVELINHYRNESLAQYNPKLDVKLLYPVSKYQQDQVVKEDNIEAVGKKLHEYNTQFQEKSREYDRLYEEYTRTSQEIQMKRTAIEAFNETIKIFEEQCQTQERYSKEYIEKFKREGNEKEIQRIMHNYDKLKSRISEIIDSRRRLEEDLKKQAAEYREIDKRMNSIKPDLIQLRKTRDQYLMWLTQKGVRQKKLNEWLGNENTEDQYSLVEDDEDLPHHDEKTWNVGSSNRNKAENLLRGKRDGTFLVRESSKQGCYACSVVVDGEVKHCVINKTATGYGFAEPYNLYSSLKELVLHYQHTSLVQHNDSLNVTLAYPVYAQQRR
T2 sequence (O00329 whole entry): as the sequence (O00329 whole entry) above
T2 sequence (P27986 whole entry partner): as the sequence (P27986 whole entry partner) above

For `O=C(O)c1cccc(Cn2cc(-c3cccc4c(=O)cc(N5CCOCC5)[nH]c34)nn2)c1` [Compound 37, 3‐{[4‐(2‐Morpholino‐4‐oxo‐1,4‐dihydroquinolin‐8‐yl)‐1H‐1,2,3‐triazol‐1‐yl]methyl}benzoic acid], the IC50 (hPI3Kδ (PIK3CD/PIK3R1); Table 2, mean of at least three determinations, 95 % confidence intervals) was 19 ± 4 nM, the inhibition at 1 µM (hPI3Kδ (PIK3CD/PIK3R1); determined at 1 μM, at least triplicate, read-out: Inhibitory activity, PI3K isoform δ) was over 50% and the “inhibition mode against PI3Kδ” value (PI3Kδ) was “ATP‐competitive inhibitor”.
